Measurements from patent US20140350117A1, “Topical Scar Treatment Composition and Method of Using Same” (PROFESSIONAL COMPOUNDING CENTERS OF AMERICA, priority 2013, published 2014).
Where a name gives a salt, the structure may show the parent alone.

Experiments:
[1] = tested on: TGF-β; assay: luciferase bioassay utilizing mink lung epithelial cells for total TGF-β in keloid fibroblasts culture; format: cell-based; settings: 48-hour exposure
Description: TGF-β is correlated with luciferase activity and reported in relative light units.

[2] = tested on: fibroblast cells; settings: cited from earlier work
[3] = tested on: keloid and hypertrophic scar cells; settings: stated to correspond to about 0.01% tamoxifen citrate; cited from earlier work
[4] = tested on: collagen; settings: cited from earlier work

With `CC/C(=C(\c1ccccc1)c1ccc(OCCN(C)C)cc1)c1ccccc1` [tamoxifen citrate] the “total TGF-β levels” value [1] was “dose-dependent decrease”, the “percent reduction of TGF-β” value ([1]; about 8 μM) was “about 75%” and the “TGF-β level after treatment” value ([1]; about 8 μM, reduced from about 200 pg/ml) was “about 50 pg/ml”. For the same compound, the “proliferation of normal dermal and keloid fibroblasts” value [2] was “decrease proliferation”, the “concentrations having a deadly effect on keloid and hypertrophic scar cells” value [3] was “greater than 20 μM” and the “synthesis of collagen by keloid fibroblasts” value [4] was “decreasing the synthesis of collagen”.
